In patent US12303483B2, “Lipase degradation resistant surfactants for use in large molecule therapeutic formulations” (Janssen Biotech, Inc., priority 2018, dated 2025):

Assays:
Format in all cases: physicochemical
[1] = test system: bispecific mAb A; experiment: SEC percent monomer, formulation spiked with lipase-exposed surfactant (Example 3), mAb A; details: mAb A (FIG. 3A)
Experimental: (§1) Size Exclusion Chromatography (SEC). The soluble aggregation quality attribute of the investigated formulations was evaluated using size exclusion ultra performance liquid chromatography (SE-UPLC). To prepare samples for analysis, collected formulations from each condition (time zero (T0) control, shaking stress, and thermal stress followed by shaking stress) were diluted with formulation buffer of each respective mAb from 50 mg/mL to 2 mg/mL. SEC runs were conducted with a 5 μL injection of sample into an Acquity UPLC 200 Å, 1.7 μm column using a 0.2 M sodium phosphate mobile phase. Eluting peaks were integrated to determine monomer content based on percent area of the main peak relative to sum of all peak areas.
(§2) Further studies evaluated the ability of PFA and polysorbate formulations to retain their protective effects after exposures of the surfactants to lipase. The mAb formulations were spiked with surfactants that had been exposed to lipase-beads and then subjected to shaking stress or thermal stress followed by shaking. The mAb formulations were then evaluated for soluble aggregation and particulate matter using SEC and DLS, respectively.

[2] = test system: lipases immobilized on beads; experiment: Surfactant stock solutions exposed to lipases immobilized on beads, surfactant quantitation by UPLC-ELSD (Example 2); details: over the course of 18 days
Text: Materials: Surfactants investigated in this study included PFA and polysorbates. Two PFA, Brij® 35 (L23) (Product #ET47399, CAS #9002-92-0) and Brij® 98 (020) (Product #ET40118, CAS #9004-98-2), were obtained from Croda International PLC (East Yorkshire, UK). Polysorbate 20 (Product #4116-04, CAS #9005-64-5) and polysorbate 80 (Product #4117-03, CAS #9005-65-6) were obtained from JT Baker (Center Valley, Pennsylvania). Lipase immobilized on polystyrene beads at 2.0 U/mg (Product Number 73940) was obtained from Fluka (Denmark). All monoclonal antibodies (mAbs) were produced or acquired by Janssen Supply Chain, LLC (Horsham, Pennsylvania) and purified in a series of chromatography and filtration steps.
Surfactant Quantitation. Surfactant quantitation of samples was performed using UPLC with evaporative light scattering detection. Duplicate 7.5 μL sample injections were injected into an OASIS MAX column (30 μm, 2.1×20 mm). The mobile phase consisted of a gradient of milliQ water and isopropanol with 2% formic acid. The integrated area for each sample's eluting peak was assessed against a surfactant standard curve created from serial dilution of each surfactant type ranging from 0.005% (w/v) to 0.08% (w/v).
Stock solutions of PFA and polysorbate surfactants were exposed to lipases immobilized on beads over a period of 18 days. Surfactant levels in the solutions were quantified periodically over the course of testing to determine the extent of lipase-mediated degradation.

[3] = test system: mAbs A, B and C (50 mg/mL formulations); experiment: SEC percent monomer of mAb formulations with surfactant after shaking or thermal stress (Example 1); details: 0.01% (w/v) surfactant; 3-month storage at 25° C. followed by shaking stress; compared with polysorbate (PS20 and PS80) formulations; Student's t-test p<0.01
Experimental: as §1
To assess the protective effects of different surfactants in mAb formulations, polysorbate and PFA was spiked into formulations for three different mAbs. mAbs A and B are bispecific antibodies, and mAb C is an IgG4 monoclonal antibody. The formulations for mAbs A and B comprised 10 mM histidine, 8.5% (w/v) sucrose, at pH 5.7. The mAb C formulation consisted of 10 mM sodium phosphate, 8.5% (w/v) sucrose, 10 ppm EDTA, at pH 7.1. […] Each formulation condition was evaluated with vials in triplicate. The impact of the surfactant type and concentration was assessed using size exclusion chromatography (SEC).

[4] = test system: IgG4 mAb C; experiment: SEC percent monomer, formulation spiked with lipase-exposed surfactant (Example 3), mAb C; details: 0.01% surfactant exposed to lipase; mAb C (FIG. 3C)
Experimental: as §1, §2

| percent monomer content (SEC) versus control formulation without any surfactant ([1]; 0.01% surfactant exposed to lipase) | percent monomer content (SEC) versus control formulation without any surfactant ([1]; 0.04% surfactant exposed to lipase) | surfactant level in stock solutions exposed to lipases [2] | percent monomer content (SEC) [3] | percent monomer content (SEC) versus control formulation without any surfactant [4] | Substance |
| --- | --- | --- | --- | --- | --- |
| lower percent monomer content | lower percent monomer content | declined significantly |  |  | polysorbate 80 [PS80] |
|  |  | remained relatively constant | retain higher percent monomer content |  | polyoxyethylene (23) lauryl ether [Brij® L23] |
|  |  | remained relatively constant | retain higher percent monomer content |  | polyoxyethylene (20) oleyl ether [Brij® 020] |
|  |  | declined significantly |  | lower percent monomer content | polysorbate 20 [PS20] |
